Data as given in patent publication EP0558661B1, “POLYAZAMACROCYCLIC COMPOUNDS FOR COMPLEXATION OF METAL IONS” (BOARD OF REGENTS THE UNIVERSITY OF TEXAS SYSTEM, priority 1990, dated 1992).
Where two headings read alike, the source gives them in different places.

Legend:
[1] = 0.1 m hcl
Method: In this experiment, Gd(DOTEP)^- and Gd(DOTA)^- were dissolved in 0.1M HCl and their decomposition to free Gd^3+ and free ligand were followed by water relaxation measurements.

[2] = Solubility as observed on the isolated product; format: physicochemical
Method: 9.20 g of NOTPDE (14.15 mmol) was mixed with 2.50 g of NaOH in 9 ml H2O) and after 2 hours the entire reaction mixture was boiled until a clear solution was obtained (approximately 5 minutes). The solution was cooled to room temperature and was allowed to stand overnight. The crystals formed were filtered off from the viscous mother liquor using a pressure filter funnel with a coarse porosity grade filter disc. The crystals were washed once with cold absolute ethanol, three times with absolute ethanol-diethylether (1:1) mixture and finally with diethyl ether. The crystals of Na3NOTPME were dried in dry nitrogen stream at 25°C for 2 hours. Traces of H2O and ethanol were removed upon vacuum drying (10 mm Hg) NOTPME for 5 hours at 50°C. […] The yield of pure NOTPME was 40.8% (3.24 g, 5.77 mmol).
NOTPME trisodium salt (178.63 mg, 0.318 mmol) was dissolved in 4.0 ml anhydrous chloroform (freshly distilled from over P4O10) and 120 microliter acetyl chloride was added. The solution was stirred at room temperature for 24 hours in a tightly closed vessel. The solution was then evaporated under dry nitrogen atmosphere to a yellowish, very viscous oil. To the oil anhydrous ether was added and NOTPME-AC (precipitated as a sodium chloride adduct) was filtered off and dried at 35-40°C under dry nitrogen. NOTPME-AC (234.24 mg, 92.3% calculated on the basis of NOTPME-AC.3NaCl formula weight) is an extremely hygroscopic, water sensitive powder.
NOTPME trisodium salt (164.82 mg, 0.294 mmol) and benzoyl chloride (105 microliter, 0.883 mmol) were reacted in 4.0 ml anhydrous chloroform at room temperature for 24 hours. The rection mixture was worked up with identical method than was used in the synthesis of NOTPME-AC. The product NOTPME-B was get as a sodium chloride adduct (204.32 mg, 70.7% calculated on the basis of NOTPME-B.3NaCl formula weight). NOTPME-B is a very hygroscopic, water sensitive powder. It is soluble in water and chloroform and DMSO.

[3] = KD of the DOTEP calcium complex by 31P NMR and pH potentiometry; format: binding; conditions: Ca(DOTEP); at pH 7.4
Method: The ^31P spectrum shown in Figure 9 was obtained on a solution containing approximately 1 mM Ca^2+ and 3 mM DOTEP in an aqueous solution at physiological pH. Clearly, the ^31P resonances of the free and bound forms of DOTEP have distinct chemical shifts and neither overlaps with the ^31P resonances of metabolites normally observed in tissue.
The value of KD at pH 7.4 reported above was determined by ^31P NMR (measuring the free and bound integrals as a function of pH in solutions containing known amounts of [Ca^2+]total and [DOTEP]total) and by pH potentiometry.

[4] = Protonation constants by potentiometric titration; format: physicochemical; conditions: 0.1 m tetramethylammonium chloride
Method: (§1) Potentiometric titrations were conducted at 25°C using a Corning Ion Analyzer (model 250) and a Metrohm Dorsimat automatic burette (Brinkman Instruments). […] Na3NOTPME was dissolved in 0.1 M tetramethylammonium chloride, the pH adjusted to low pH value with HCl and titrated with 0.098 M KOH. KOH was standardized by potentiometric titration against potassium hydrogen phthalate and stored under N2 atmosphere. The hydrogen ion activity coefficient and Kw were determined separately in these same salt solutions. Stability constants of Zn(NOTPME)^-, Mg(NOTPME)^-, and Ca(NOTPME)^- were determined by potentiometric titration of solutions containing 1:1 ratio of metal and ligand. In all of the titrations, samples were covered by a layer of cyclohexane to exclude CO2.
(§2) Protonation constants (KHiL) and stability constants (KML, and KMHL) are defined by the following equations: KHiL = [Hi L] / {[Hi-1 (L] {H)^+ ]) [formula] KML = [ML] / {[M] [L]) [formula] KMHL (= [MHL] / {[ML] [H)^+ ]} [formula] Protonation and stability constants were obtained from the potentiometric data using a simplex non-linear algorithm run on an IBM PC.
A representative potentiometric titration curve for NOTPME in 0.1 M tetramethylammonium chloride and 25°C is illustrated in Figure 2. […] The phosphorous shifts are very sensitive to protonation of the nitrogens in the polyaza ring, similar to that observed for the parent phosphonate NOTP [17]. The first two protonations (log K = 11.8, 3.65) result in ^31P shifts to low frequency which is consistent with protonation at two ring nitrogens. […] These differences in pK2 may reflect differences in the ability of the phosphonate versus the phosphonate monoester side chains to form internal hydrogen bonds with the protonated nitrogens.

[5] = KD determination by 31P NMR (integration of free and metal bound resonances); format: binding
Method: ^1H NMR data was obtained on JEOL FX-200 NMR spectrometer using a 10 mm probe operating at room temperature. Studies on solutions of NOTPME and its complexes were performed on a General Electric GN-500 NMR spectrometer. A 10 mm broad band probe was tuned to 202.4 MHz for ^31P detection. Shifts for NOTPME and its complexes were measured using 85% H3PO4 as an external standard. Probe temperatures were accurate to ± 0.5°C.
Samples of NOTPME used for KD determinations by NMR consisted of 115 mM KCl, 20 mM NaCl and 10 mM HEPES buffered with Tris base at pH 7.4. Varying concentrations (typically 0.5 to 10 mM) of Mg^2+, Ca^2+ or Zn^2+ were added to the sample and the resulting ^31P NMR spectrum obtained. Resonance areas were determined by integration of peaks using the GE software.
The area of resonances corresponding to free and metal bound NOTPME were obtained by integration and their concentrations estimated.

[6] = Stability constants by potentiometric titration; format: binding; conditions: for log KML: potentiometry at 25°C, 1:1 metal and ligand, 0.1 M tetramethylammonium chloride
Method: as §1, §2

[7] = tested on: RBCs; experiment: Red blood cell loading of NOTPME and intracellular free Mg2+ by 31P NMR; format: cell-based, Human
Method: Fresh whole blood was obtained placed in heparinized tubes and centrifuged at 3000 g for 6 min. to remove the buffy coat. RBCs were then washed three times in 5 mM phosphate buffered saline at pH 7.4. RBCs at 50% hematocrit were suspended in the loading medium containing 120 mM NaCl, 5 mM MgCl2, 10 mM HEPES pH 7.4, 10 mM glucose, and 10 mM NOTPME and incubated at 37°C for 12 hours. No lysis of RBCs were observed during the loading procedure. The RBCs were centrifuged and the supernatant discarded. The RBCs were washed twice with phosphate buffered saline at pH 7.4 before suspension in an isotonic medium.
Figure 6 illustrates one application of NOTPME to detect intracellular free Mg^2+ in RBCs. NOTPME loaded RBCs (Figure 6.b) were prepared by incubating RBCs at 37°C in a loading medium containing NOTPME in the presence of 5mM MgCl2 for 12 hours. NOTPME loading into RBCs was not observed in the absence of MgCl2 in the loading medium.
As in the in vitro studies, two resonances were observed corresponding to free and Mg^2+ bound NOTPME in RBCs. […] Since intracellular free Mg^2+ levels in RBCs normally range between 0.2 - 0.3 mM [12,19,20], the high concentration of intracellular free Mg^2+ observed in this experiment must have resulted from transport of Mg^2+ as a complex with NOTPME. Upon addition of the divalent cation ionophore A23187 to the suspension medium, an increase in intracellular free Mg^2+ concentration (to 1.90 mM) was observed (data not shown).

[8] = tested on: red blood cells; experiment: Red blood cell loading of NOTPME derivatives; format: cell-based; conditions: during the time course of NMR measurements, after loading with the derivatives
Method: NOTPME derivatives used are the benzoyl and acetyl derivatives. Fresh whole blood was obtained in heparinized tubes and centrifuged at 3000g for 3 minutes to remove the buffy coat. Packed red blood cells are then washed three times in 5 mM phosphate buffered saline at pH 7.4. Red blood cells at 50% hematocrit were suspended in the NOTPME derivative containing loading medium. The loading medium contained 130 mM NaCl, 5 mM NOTPME derivative (benzoyl or acetyl derivative), 1 mM adenine, 10 mM glucose, and 10 mM HEPES at pH 7.4. Red cells in the above loading medium were incubated at 25°C for 1 hour. No lysis of red blood cells were observed during the loading procedure. After loading with NOTPME derivatives for one hour, the red cell suspension was centrifuged and the supernatant discarded. The red cells are washed twice with 5 mM phosphate buffered saline at pH 7.4 before suspension in an isotonic saline for NMR measurements. […] After NMR measurements the sample was centrifuged and the supernatant analyzed for any leakage of NOTPME. No leak of NOTPME was observed during the time course of NMR measurements. thus, it is clear that these NOTPME derivatives enter the red cells, get hydrolyzed to NOTPME and remain inside red cells.

## Gd(DOTA)^-
[1]
  half-lives for decomposition: approximately 110 hrs.

## CCOP(=O)(CN1CCN(CP(=O)(OCC)OC(C)=O)CCN(CP(=O)(OCC)OC(C)=O)CC1)OC(C)=O (centres unmarked) [NOTPME-AC, 1,4,7-triazacyclononane-N,N',N"-tris(methylenephosphonatemonoethylesteracetic acid anhydride)]
[2]
  solubility in DMSO: readily soluble
  solubility in chloroform: readily soluble
  solubility in water: readily soluble

## CCP(=O)(O)CN1CCN(CP(=O)(O)CC)CCN(CP(=O)(O)CC)CCN(CP(=O)(O)CC)CC1 [DOTEP]
[3]
  Kd: 0.011 mM

## CCOP(=O)(O)CN1CCN(CP(=O)(O)OCC)CCN(CP(=O)(O)OCC)CC1 [NOTPME, 1,4,7-Triazacyclononane-N,N',N"-tris(methylenephosphonatemonoethylester)]
[2]
  solubility in chloroform: fairly soluble
  solubility in water: readily soluble
[4]; 25°C, read-out: pK1 (first protonation constant, log K1)
  pKa: 11.8
[4]; 25°C, read-out: pK2 (second protonation constant, log K2)
  pKa: 3.65
[4]; 25°C, read-out: pK3
  pKa: 1.4
[4]; protonations of the phosphonate ester oxygens
  pKa: < 1.4
[5]; Ca^2+ complex, 115 mM KCl, 20 mM NaCl, 10 mM HEPES, pH 7.4, read-out: KD (at 25°X)
  Kd: 50 mM
[5]; Ca^2+ complex, pH 7.4, read-out: KD (at 37°C)
  Kd: 47.6 mM
[5]; Mg^2+ complex, 31P NMR, 115 mM KCl, 20 mM NaCl, 10 mM HEPES, pH 7.4, read-out: KD (at 25°X)
  Kd: 5.77 mM
[5]; Mg^2+ complex, 31P NMR, pH 7.4, read-out: KD (at 37°C)
  Kd: 4.66 mM
[5]; at physiological pH values
  higher affinity for Mg^2+ than for Ca^2+: 10 fold
[6]; Ca^2+
  log KML: 5.1
[6]; Mg^2+
  log KML: 6.3
[6]; Zn^2+ complex, estimated from log KML = 15.4, the ligand pK values and the proton concentration at pH 7.4
  Kd: 0.01 nM
[7]; 10 mM NOTPME, 5 mM MgCl2, 37°C, 12 hours, 50% hematocrit
  lysis of RBCs during the loading procedure: No lysis
[7]; in the absence of MgCl2 in the loading medium
  loading into RBCs: not observed
[7]; in the presence of Mg^2+
  loading into red blood cells: readily loaded
[8]
  leakage of NOTPME into the supernatant: No leak

## CCOP(=O)(CN1CCN(CP(=O)(OCC)OC(=O)c2ccccc2)CCN(CP(=O)(OCC)OC(=O)c2ccccc2)CC1)OC(=O)c1ccccc1 (centres unmarked) [NOTPME-B]
[2]
  solubility in DMSO: soluble
  solubility in chloroform: soluble
  solubility in water: soluble
